# Measurements published in ChEMBL document CHEMBL6182831, “Thiazole-fused androstenone and ethisterone derivatives: potent β- and γ-actin cytoskeleton inhibitors to treat melanoma tumors” (RSC Med Chem, 2025).
# Calls of active or inactive are those of the source. The calls are words filed in the database; no cut-off is given here.
# Experiments:
# SK-MEL-28 [1] = experiment: Cytotoxicity against human SK-MEL-28 cells assessed as inhibition of cell growth incubated for 24 hrs by resazurin staining based analysis; assay type: functional; settings: SK-MEL-28, 24 h
# B16-F10 [2] = experiment: Inhibition of colony formation in mouse B16-F10 cells at 6 uM incubated for 6 days by crystal violet staining based analysis; assay type: functional; settings: B16-F10, 144 h, time 6 day
# B16-F10 [3] = experiment: Inhibition of cell migration in mouse B16-F10 cells at 2 uM incubated for 24 hrs by wound healing assay; assay type: functional, cell-based
# B16-F10 [4] = experiment: Antitumor activity against mouse B16-F10 cells implanted in C57BL/6 mouse assessed as reduction of tumor weight at 40 mg/kg, ip administered once daily from 6 to 9 days and every alternate days till 18; assay type: functional, organism-based; settings: time 13.0 day
# SK-MEL-28 [5] = experiment: Upregulation of PARVB mRNA expression in human SK-MEL-28 cells at 2 uM measured for 2 hrs by qPCR analysis; assay type: functional, cell-based
# SK-MEL-28 [6] = experiment: Inhibition of cell adhesion in human SK-MEL-28 cells assessed as reduction in number of adherent cells incubated for 1.5 hrs; assay type: functional, cell-based
# SK-MEL-28 [7] = experiment: Effect on PARVB level in human SK-MEL-28 cells at 2 uM measured after 24 hrs by Western blot analysis; assay type: functional, cell-based
# B16-F10 [8] = experiment: Cytotoxicity against mouse B16-F10 cells assessed as inhibition of cell growth incubated for 24 hrs by resazurin staining based analysis; assay type: functional; settings: B16-F10, 24 h
# SK-MEL-28 [9] = experiment: Inhibition of cell adhesion in human SK-MEL-28 cells at 2.5 uM incubated for 1.5 hrs; assay type: functional, cell-based
# [10] = Toxicity in C57BL/6 mouse assessed as animal survival at 40 mg/kg, ip administered once daily from 6 to 9 days and every alternate days till 19; assay type: organism-based; settings: in vivo, time 14 day
# SK-MEL-28 [11] = experiment: Downregulation of ACTB level in human SK-MEL-28 cells at 2 uM measured for 24 hrs by qRT-PCR analysis; assay type: functional, cell-based
# [12] = Toxicity in C57BL/6 mouse assessed as change in BUN level at 40 mg/kg, ip administered once daily and measured up to 20 days; assay type: organism-based; settings: in vivo, 480 h, time < 20 day
# B16-F10 [13] = experiment: Inhibition of colony formation in mouse B16-F10 cells at 3 uM incubated for 6 days by crystal violet staining based analysis; assay type: functional; settings: B16-F10, 144 h, time 6 day
# SK-MEL-28 [14] = experiment: Effect on ACTG1 level in human SK-MEL-28 cells at 2 uM measured after 24 hrs by Western blot analysis; assay type: functional, cell-based
# SK-MEL-28 [15] = experiment: Effect on ACTG1 mRNA expression in human SK-MEL-28 cells at 2 uM measured after 24 hrs by qRT-PCR analysis; assay type: functional, cell-based
# B16-F10 [16] = experiment: Induction of apoptosis in mouse B16-F10 cells at 8 uM measured for 24 hrs by Annexin V FITC/PI staining based flow cytometry analysis; assay type: functional, cell-based
# SK-MEL-28 [17] = experiment: Induction of cell cycle arrest in human SK-MEL-28 cells assessed as accumulation of cells at G2/M phase at 3 uM incubated for 24 hrs by PI staining based flow cytometry analysis; assay type: functional
# [18] = Toxicity in C57BL/6 mouse assessed as change in creatinine level at 40 mg/kg, ip administered once daily and measured up to 20 days; assay type: organism-based; settings: in vivo, 480 h, time < 20 day
# [19] = Toxicity in C57BL/6 mouse assessed as change in albumin level at 40 mg/kg, ip administered once daily and measured up to 20 days; assay type: organism-based; settings: in vivo, 480 h, time < 20 day
# [20] = Toxicity in C57BL/6 mouse assessed as change in ALT level at 40 mg/kg, ip administered once daily and measured up to 20 days; assay type: organism-based; settings: in vivo, 480 h, time < 20 day
# SK-MEL-28 [21] = experiment: Effect on ACTB mRNA expression in human SK-MEL-28 cells at 2 uM measured after 24 hrs by qRT-PCR analysis; assay type: functional, cell-based
# B16-F10 [22] = experiment: Antitumor activity against mouse B16-F10 cells implanted in C57BL/6 mouse assessed as inhibition of tumor growth at 40 mg/kg, ip administered once daily from 6 to 9 days and every alternate days till 18; assay type: functional, organism-based; settings: time 13.0 day
# LOX IMVI [23] = experiment: Cytotoxicity against human LOX IMVI cells assessed as inhibition of cell growth incubated for 24 hrs by resazurin staining based analysis; assay type: functional
# LOX IMVI [24] = experiment: Upregulation of PARVB mRNA expression in human LOX IMVI cells at 2 uM measured for 2 hrs by qPCR analysis; assay type: functional, cell-based
# [25] = Toxicity in C57BL/6 mouse assessed as change in body weight at 40 mg/kg, ip administered once daily and measured up to 20 days; assay type: organism-based; settings: in vivo, 480 h, time < 20 day
# SK-MEL-5 = experiment: Cytotoxicity against human SK-MEL-5 cells assessed as inhibition of cell growth incubated for 24 hrs by resazurin staining based analysis; assay type: functional; settings: SK-MEL-5, 24 h
# [26] = Toxicity in C57BL/6 mouse assessed as change in ALP level at 40 mg/kg, ip administered once daily and measured up to 20 days; assay type: organism-based; settings: in vivo, 480 h, time < 20 day
# B16-F10 [27] = experiment: Induction of cell cycle arrest in mouse B16-F10 cells assessed as accumulation of cells at G2/M phase at 3 uM incubated for 24 hrs by PI staining based flow cytometry analysis; assay type: functional
# SK-MEL-25 = experiment: Cytotoxicity against human SK-MEL-25 cells assessed as inhibition of cell growth incubated for 24 hrs by resazurin staining based analysis; assay type: functional; settings: SK-MEL-25, 24 h
# B16-F10 [28] = experiment: Inhibition of cell adhesion in mouse B16-F10 cells at 2.5 uM incubated for 1.5 hrs; assay type: functional, cell-based
# [29] = Toxicity in C57BL/6 mouse assessed as change in total bilirubin level at 40 mg/kg, ip administered once daily and measured up to 20 days; assay type: organism-based; settings: in vivo, 480 h, time < 20 day
# SK-MEL-28 [30] = experiment: Effect on ACTB level in human SK-MEL-28 cells at 2 uM measured after 24 hrs by Western blot analysis; assay type: functional, cell-based
# B16-F10 [31] = experiment: Inhibition of cell adhesion in mouse B16-F10 cells assessed as reduction in number of adherent cells incubated for 1.5 hrs; assay type: functional, cell-based
# SK-MEL-28 [32] = experiment: Inhibition of cell migration in human SK-MEL-28 cells at 1.2 uM incubated for 24 hrs by wound healing assay; assay type: functional, cell-based
# B16-F10 [33] = experiment: Antitumor activity against mouse B16-F10 cells implanted in C57BL/6 mouse assessed as reduction of tumor weight at 40 mg/kg, ip administered once daily from 6 to 12 days and every alternate days till 18; assay type: functional, organism-based; settings: time 13.0 day
# [34] = Toxicity in C57BL/6 mouse assessed as change in amylase level at 40 mg/kg, ip administered once daily and measured up to 20 days; assay type: organism-based; settings: in vivo, 480 h, time < 20 day
# [35] = Toxicity in C57BL/6 mouse assessed as animal survival at 40 mg/kg, ip administered once daily from 6 to 9 days and every alternate days till 18; assay type: organism-based; settings: in vivo, time 13 day
smiles,measurement,setting,value
C#C[C@]1(O)CC[C@H]2[C@@H]3CC=C4c5sc(-c6ccc(O)c(O)c6)nc5CC[C@]4(C)[C@H]3CC[C@@]21C,IC50,SK-MEL-28 [1],3.6 µM
same,inhibition at 6 µM,B16-F10 [2],100%
same,inhibition,B16-F10 [3],Active
same,Activity,B16-F10 [4],Active
same,Activity,SK-MEL-28 [5],Active
same,inhibition,SK-MEL-28 [6],Active
same,Activity,SK-MEL-28 [7],Active
same,IC50,B16-F10 [8],2.6 µM
same,inhibition,SK-MEL-28 [9],Active
same,survival at 336 h,[10],80%
same,Activity,SK-MEL-28 [11],Active
same,Activity,[12],Non-toxic
same,inhibition at 3 µM,B16-F10 [13],100%
same,Activity,SK-MEL-28 [14],Active
same,Activity,SK-MEL-28 [15],Active
same,Activity,B16-F10 [16],Active
same,Activity,SK-MEL-28 [17],Active
same,Activity,[18],Non-toxic
same,Activity,[19],Non-toxic
same,Activity,[20],Non-toxic
same,Activity,SK-MEL-28 [21],Active
same,TGI,B16-F10 [22],Active
same,IC50,LOX IMVI [23],4.4 µM
same,Activity,LOX IMVI [24],Active
same,Activity,[25],Non-toxic
same,IC50,SK-MEL-5,3.7 µM
same,Activity,[26],Non-toxic
same,Activity,B16-F10 [27],Active
same,IC50,SK-MEL-25,2.5 µM
same,inhibition,B16-F10 [28],Active
same,Activity,[29],Non-toxic
same,Activity,SK-MEL-28 [30],Active
same,inhibition,B16-F10 [31],Active
same,inhibition,SK-MEL-28 [32],Active
same,Activity,B16-F10 [33],Active
same,Activity,[34],Non-toxic
same,survival at 312 h,[35],~80%
C#C[C@]1(O)CC[C@H]2[C@@H]3CC=C4c5sc(Nc6ccccc6)nc5CC[C@]4(C)[C@H]3CC[C@@]21C,IC50,SK-MEL-28 [1],1.7 µM
same,IC50,B16-F10 [8],2.7 µM
same,survival at 336 h,[10],10%
same,Activity,[12],Non-toxic
same,Activity,[18],Non-toxic
same,Activity,[19],Non-toxic
same,Activity,[20],Non-toxic
same,IC50,LOX IMVI [23],1.6 µM
same,Activity,[25],Non-toxic
same,IC50,SK-MEL-5,2.4 µM
same,Activity,[26],Non-toxic
same,IC50,SK-MEL-25,1.6 µM
same,Activity,[29],Non-toxic
same,Activity,B16-F10 [33],Active
same,Activity,[34],Non-toxic
same,survival at 312 h,[35],~80%
C#C[C@]1(O)CC[C@H]2[C@@H]3CC=C4c5sc(Nc6ccc(C)c(Cl)c6)nc5CC[C@]4(C)[C@H]3CC[C@@]21C,IC50,SK-MEL-28 [1],5.6 µM
same,IC50,B16-F10 [8],4.9 µM
same,IC50,LOX IMVI [23],3.9 µM
same,IC50,SK-MEL-5,4.3 µM
same,IC50,SK-MEL-25,4.6 µM
C#C[C@]1(O)CC[C@H]2[C@@H]3CC=C4c5sc(Nc6cccnc6)nc5CC[C@]4(C)[C@H]3CC[C@@]21C,IC50,SK-MEL-28 [1],2.3 µM
same,IC50,B16-F10 [8],10.7 µM
same,IC50,LOX IMVI [23],2.6 µM
same,IC50,SK-MEL-5,3 µM
same,IC50,SK-MEL-25,2.1 µM
C[C@]12CCc3nc(Nc4ccccn4)sc3C1=CC[C@@H]1[C@@H]2CC[C@]2(C)C(=O)CC[C@@H]12,IC50,SK-MEL-28 [1],8.9 µM
same,IC50,B16-F10 [8],5.9 µM
same,IC50,LOX IMVI [23],2.3 µM
same,IC50,SK-MEL-5,7.1 µM
same,IC50,SK-MEL-25,11.8 µM
COc1ccc(OC)c(Nc2nc3c(s2)C2=CC[C@@H]4[C@H](CC[C@]5(C)C(=O)CC[C@@H]45)[C@@]2(C)CC3)c1,IC50,SK-MEL-28 [1],> 20 µM
same,IC50,B16-F10 [8],6.4 µM
same,IC50,LOX IMVI [23],6.2 µM
same,IC50,SK-MEL-5,> 20 µM
same,IC50,SK-MEL-25,> 20 µM
C#C[C@]1(O)CC[C@H]2[C@@H]3CC=C4c5sc(N6CCN(C)CC6)nc5CC[C@]4(C)[C@H]3CC[C@@]21C,IC50,SK-MEL-28 [1],2 µM
same,IC50,B16-F10 [8],2.8 µM
same,IC50,LOX IMVI [23],7.4 µM
same,IC50,SK-MEL-5,2.6 µM
same,IC50,SK-MEL-25,2.8 µM
C#C[C@]1(O)CC[C@H]2[C@@H]3CC=C4c5sc(Nc6ccncc6)nc5CC[C@]4(C)[C@H]3CC[C@@]21C,IC50,SK-MEL-28 [1],4.2 µM
same,IC50,B16-F10 [8],6.7 µM
same,IC50,LOX IMVI [23],2.5 µM
same,IC50,SK-MEL-5,2.9 µM
same,IC50,SK-MEL-25,7.9 µM
C#C[C@]1(O)CC[C@H]2[C@@H]3CC=C4c5sc(-c6ccc(O)cc6)nc5CC[C@]4(C)[C@H]3CC[C@@]21C,IC50,SK-MEL-28 [1],2.5 µM
same,IC50,B16-F10 [8],4.7 µM
same,IC50,LOX IMVI [23],3.3 µM
same,IC50,SK-MEL-5,3.2 µM
same,IC50,SK-MEL-25,3.7 µM
C#C[C@]1(O)CC[C@H]2[C@@H]3CC=C4c5sc(Nc6ncccc6C)nc5CC[C@]4(C)[C@H]3CC[C@@]21C,IC50,SK-MEL-28 [1],2.4 µM
same,IC50,B16-F10 [8],2.9 µM
same,IC50,LOX IMVI [23],4.8 µM
same,IC50,SK-MEL-5,5.5 µM
same,IC50,SK-MEL-25,> 20 µM
